Earlier results in patent US20070275075A1, “Ezetimibe compositions” (priority 2006, published 2007).

Tests used:
[1] = not given; remark: listed apart in the source

- stability at ambient temperature: stable
- solubility in ethanol, methanol, and acetone ([1]; ethanol, methanol, acetone): freely to very soluble
- solubility in water ([1]; water): practically insoluble
Structure (SMILES): O=C1[C@H](CC[C@H](O)c2ccc(F)cc2)[C@@H](c2ccc(O)cc2)N1c1ccc(F)cc1 [Ezetimibe, 1-(4-fluorophenyl)-3(R)-[3-(4-fluorophenyl)-3(S)-hydroxypropyl]-4(S)-(4-hydroxyphenyl)-2-azetidinone]
